Consider 14 compounds from article PMC6822569 (Journal of medicinal chemistry, 2019).

Read-outs that look alike come from different tables or passages of the source. A value given as a limit tells only on which side of the number the result lay.

Series [1] has as its system P. falciparum Dd2. Put plainly: microbe, parasite or virus in culture. It counts as cell-based.
Series [2] is described as follows: In vivo pharmacokinetic study, single oral dose in mice, plasma and liver.
In series [3] the test system is P. yoelii. Nature of the series: In vivo blood stage efficacy, modified 4-day test in murine P. yoelii model. The note with it: after 80 mg/kg × 4 days oral dosing.
Series [4] deals with P. falciparum Dd2. Nature of the series: 72 h SYBR Green I drug susceptibility, parental Dd2. It counts as cell-based. The note with it: Plasmodium falciparum, DD2, 72 h, read-out: Dd2 IC50.
The test system of series [5] is P. falciparum Tm90-C2B. Put plainly: In vitro blood stage antimalarial activity, MSF assay, strain Tm90-C2B. The series is classed as cell-based. Conditions: read-out: blood stage IC50 vs P. falciparum Tm90-C2B; Tm90-C2B: Atovaquone resistant clinical isolate.
For series [6], the system named is HepG2. Put plainly: HepG2 cytotoxicity assay. The series is classed as cell-based, human.
The nature of series [7]: In vitro metabolic stability, human liver microsomes. Conditions: 1 μM.
For series [8], the target named is hERG (human-ether-a-go-go-related gene) potassium channel (Homo sapiens, UniProt Q12809). Put plainly: hERG potassium channel current, automatic parallel patch clamp. The series is classed as cell-based.
[9] abbreviates: Plasmodium falciparum, DD2, read-out: blood stage IC50 vs P. falciparum Dd2.
Setting [10] is: male, ICR, mouse, liver, po, 80 mg/kg.
[11] abbreviates: read-out: blood stage IC50 vs P. falciparum Dd2, Dd2: MDR strain with Old World genetic background.
[12] abbreviates: liver, single oral dose of 80 mg/kg, mice.
[13] abbreviates: plasma, single oral dose of 80 mg/kg, mice.

hERG (human-ether-a-go-go-related gene) potassium channel, sequence (Q12809 whole entry): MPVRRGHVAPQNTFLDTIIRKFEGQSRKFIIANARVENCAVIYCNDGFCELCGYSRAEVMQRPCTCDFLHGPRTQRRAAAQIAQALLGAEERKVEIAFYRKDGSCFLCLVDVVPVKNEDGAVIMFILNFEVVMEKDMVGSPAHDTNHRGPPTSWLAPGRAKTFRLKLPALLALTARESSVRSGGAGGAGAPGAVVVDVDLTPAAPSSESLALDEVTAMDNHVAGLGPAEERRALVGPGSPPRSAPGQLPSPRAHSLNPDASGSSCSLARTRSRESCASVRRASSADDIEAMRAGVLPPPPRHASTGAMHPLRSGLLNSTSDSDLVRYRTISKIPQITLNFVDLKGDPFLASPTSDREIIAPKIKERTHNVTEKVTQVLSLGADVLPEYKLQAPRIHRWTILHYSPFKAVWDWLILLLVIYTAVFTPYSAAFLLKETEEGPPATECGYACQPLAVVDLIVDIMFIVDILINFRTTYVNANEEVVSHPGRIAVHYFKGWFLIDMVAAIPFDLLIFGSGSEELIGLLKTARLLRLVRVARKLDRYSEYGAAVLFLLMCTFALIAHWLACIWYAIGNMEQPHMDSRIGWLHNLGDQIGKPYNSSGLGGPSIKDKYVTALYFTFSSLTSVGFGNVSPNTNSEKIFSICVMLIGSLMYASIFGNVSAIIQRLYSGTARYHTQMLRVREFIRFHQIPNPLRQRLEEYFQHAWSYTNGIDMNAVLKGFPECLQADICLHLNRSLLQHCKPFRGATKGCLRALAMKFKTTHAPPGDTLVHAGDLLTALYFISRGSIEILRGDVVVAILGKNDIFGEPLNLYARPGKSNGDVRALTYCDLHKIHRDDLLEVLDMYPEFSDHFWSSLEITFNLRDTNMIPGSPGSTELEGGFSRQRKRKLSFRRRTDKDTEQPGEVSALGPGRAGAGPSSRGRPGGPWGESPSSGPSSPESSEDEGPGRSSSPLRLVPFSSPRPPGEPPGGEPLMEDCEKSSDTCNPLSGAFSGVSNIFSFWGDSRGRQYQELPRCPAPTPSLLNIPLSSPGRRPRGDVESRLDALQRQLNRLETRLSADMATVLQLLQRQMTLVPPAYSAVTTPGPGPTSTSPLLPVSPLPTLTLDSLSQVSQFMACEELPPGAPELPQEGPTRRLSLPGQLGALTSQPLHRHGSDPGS

`O=c1c2ccc(OCCNC34CC5CC(CC(C5)C3)C4)cc2[nH]c2ccc(Cl)c(Cl)c12` [compound 81, 6-(2-((Adamantan-1-yl)amino)ethoxy)-1,2-dichloroacridin-9(10H)-one]: the IC50 in series [1] (setting [9]) worked out at 77 nM.

On to `CCN(CC)CCOc1ccc2c(=O)c3ccc(Cl)cc3[nH]c2c1` [compound 7, 3-chloro-6-(2-(diethylamino)ethoxy)acridin-9(10H)-one], for which the concentration for half-maximal inhibition (IC50) in series [1] (setting [9]) stood at 41 nM.

In the case of `CC(C)(C)NCCOc1ccc2c(=O)c3c(Cl)c(Cl)ccc3[nH]c2c1` [compound 78, 6-(2-(tert-Butylamino)ethoxy)-1,2-dichloroacridin-9(10H)-one], the IC50 in series [1] (setting [9]) stood at 679 nM.

Regarding `CCCN(CCC)CCCOc1ccc2c(=O)c3c(F)cc(F)cc3[nH]c2c1` [compound 52, 6-(3-(Dipropylamino)propoxy)-1,3-difluoroacridin-9(10H)-one], in series [2] (setting [10]), the CL/F was 5.8 mL/min/kg and the Vd/F stood at 3.48 L/kg.

For `CCCN(CCC)CCOc1ccc2c(=O)c3c(Cl)c(Cl)ccc3[nH]c2c1` [compound 74, 1,2-Dichloro-6-(2-(dipropylamino)ethoxy)acridin-9(10H)-one], in series [3], the “cure in murine P. yoelii model” value was “curative”. In series [2] (setting [10]), this compound had a CL/F of 2.45 mL/min/kg and a Vd/F of 0.392 L/kg. Further, the IC50 in series [1] (setting [9]) was 0.05 nM.

`COc1cc(NC(C)CCCN)c2ncccc2c1` (stereo not shown) [Primaquine, reference compound] yielded a Vd/F in series [2] (male, ICR, mouse, in vivo, po, 80 mg/kg) of 4.42 L/kg.

Turning to `CCN(CC)CCOc1ccc2c(=O)c3c(Cl)c(Cl)ccc3[nH]c2c1` [compound 73, 1,2-Dichloro-6-(2-(diethylamino)ethoxy)acridin-9(10H)-one], the IC50 is 40 ± 5.5 nM in series [4] and 12 nM in series [1] (setting [9]).

On to “1,4-Dichloro-6-(3-(diethylamino)propoxy)acridin-9(10H)-one [compound 100]”, for which the concentration for half-maximal inhibition (IC50) in series [5] is more than 2500 nM; in series [6], 77000 nM; in series [1] (setting [11]), 1300 nM. Further, the “selectivity index (SI) (D6)” value in series [6] (SI = IC50 (cytotoxicity)/IC50 (D6)) was 152.

Turning to `O=c1c2ccc(OCCCCl)cc2[nH]c2ccc(Cl)c(Cl)c12` [compound 71, 1,2-Dichloro-6-(3-chloropropoxy)acridin-9(10H)-one], the half-maximal inhibitory concentration (IC50) in series [1] (setting [9]) came to 17 nM.

Take `CCN(CC)CCOc1ccc2c(=O)c3c(F)cc(F)cc3[nH]c2c1` [compound 46, 6-(2-(Diethylamino)ethoxy)-1,3-difluoroacridin-9(10H)-one]: the IC50 in series [1] (setting [9]) was found to be 16 nM.

In the case of `CN1CCCC1CCOc1ccc2c(=O)c3c(Cl)c(Cl)ccc3[nH]c2c1` (stereo not shown) [compound 76, 1,2-Dichloro-6-(2-(1-methylpyrrolidin-2-yl)ethoxy)acridin-9(10H)-one], in series [1] (setting [9]), the IC50 came out at 172 nM.

Turning to “1,2-Dichloro-6-(3-(dibutylamino)propoxy)acridin-9(10H)-one [compound 75]”, the IC50 in series [5] stood at 228 nM. Also, in series [3], the “cure in murine P. yoelii model” value is on record as “curative”. Further, the IC50 in series [6] (read-out: cytotoxicity IC50 vs HepG2, human hepatocarcinoma HepG2 cells) was 54500 nM. In series [2] (setting [12]), the AUCinf was determined as 169389 ng·h/mL, the AUClast amounted to 167981 ng·h/mL, the CL/F was found to be 8.95 mL/min/kg and the peak concentration (Cmax) amounted to 21269 ng/mL. Besides, in series [2] (setting [12]), the MRT b was 10.08 h, the Tmax turned out to be 2.75 h, the Vz/F worked out at 3.605 L/kg and the t1/2 came out at 4.63 h. In series [2] (setting [13]), this compound yielded an AUCinf of 3239 ng·h/mL, an AUClast of 3049 ng·h/mL, a CL/F of 431.32 mL/min/kg and a Cmax of 226 ng/mL. Also, in series [2] (setting [13]), the MRT b came out at 6.96 h, the Tmax came out at 2.75 h, the Vz/F came to 223.865 L/kg and the t1/2 was determined as 6.00 h. Moreover, the “metabolic stability vs microsomes t1/2, human” value in series [7] amounted to 0.2 h. The concentration for half-maximal inhibition (IC50) in series [1] (setting [11]) stood at 0.041 nM. The “hERG activity (% inhibition at 10 uM)” value in series [8] is 57%.

Turning to `CCCN(CCC)CCOc1ccc2c(=O)c3c(F)cc(F)cc3[nH]c2c1` [compound 48, 6-(2-(Dipropylamino)ethoxy)-1,3-difluoroacridin-9(10H)-one], the “cure in murine P. yoelii model” value in series [3] is listed as “curative”. Also, the results for the CL/F in series [2] (setting [10]) and in series [2] (setting [13]) were 15.5 mL/min/kg and 407.77 mL/min/kg, respectively. In series [2] (setting [10]), this compound gave a Vd/F of 14 L/kg.

On to `CCN(CC)CCOc1ccc2[nH]c3cc(Cl)ccc3c(=O)c2c1` [compound 128, 6-chloro-2-(2-(diethylamino)ethoxy)acridin-9(10H)-one], for which the IC50 in series [1] (setting [9]) turned out to be 132 nM.
